Key:
ALPK1 = ALPK1 (Homo sapiens (Human), UniProt Q96QP1); assay: ALPK1 in vitro kinase assay (HTRF, TIFA phosphorylation); type: biochemical; details: ADP-Heptose activated ALPK1
Protocol: ALPK1 kinase activity was measured in an in vitro assay using ADP-Heptose as the ALPK1 ligand and activator of its kinase activity and TIFA protein as the ALPK1 phosphorylation substrate. Since phosphorylated TIFA proteins oligomerize, Homogeneous Time-Resolved Fluorescence (HTRF) was used to measure protein:protein interaction between HA-tagged TIFA proteins as an indicator of TIFA phosphorylation.
In brief, dose-response studies were performed with HEK293 cells cultured in Dulbecco's Modified Eagle Medium (DMEM) supplemented 10% fetal bovine serum (FBS, Hyclone™) containing antibiotics (pen/strep, G418) in 384-well assay plates. Each well contained 0.1 mg TIFA, ALPK1 (2 nM final concentration in reaction mixture) and kinase buffer (100 mM of HEPES pH 7.4, 4 mM DTT, 40 mM MgCl2, 20 mM of β-Glycerol phosphate disodium salt, 0.4 mM of Na3VO4, 0.16 mg/mL). Titrations of the test compounds were prepared in dimethylsulphoxide (DMSO). The reaction was initiated by addition of ATP and ADP-Heptose.
For HTRF, samples were incubated with a Tb cryptate-labeled anti-HA antibody for capturing HA-tagged proteins according to the manufacturer's instructions (PerkinElmer™, CisBio™) and the fluorescence signal was quantified (Tecan Infinite F NANO+). HTRF signals were calculated as the HTRF ratio (ratio of fluorescence measured at 665 nm and 620 nm)×104 (thereby using the signal at 620 nm as an internal standard).
IC50 values were determined using 3- or 4-parameter logistic equation using GraphPad Prism version 6.00. The reference compound, A027, was used as a positive control for each plate.

[1] = test system: ALPK1-dependent NFκB reporter gene activation; assay: NFκB gene reporter alkaline phosphatase assay in HEK293 G9 cells; type: cell-based; details: Homo sapiens; HEK293 G9 cells stimulated with D-glycero-D-manno-6-fluoro-heptose-1β-S-ADP
Protocol: An alkaline phosphatase reporter assay system was used to measure inhibition of ALPK1-dependent NFκB reporter gene activation. Briefly, HEK293 cells stably expressing an NF-kB reporter (referred to herein as “G9 cells”) were maintained in DMEM as described above. For the assay, cells were seeded into 96-well plates at a density of 10,000 cells/well in Freestyle™ 293 Expression Medium (ThermoFisher), and allowed to attach overnight. Cells were pretreated with serially diluted compounds for 30 min and then stimulated with D-glycero-D-manno-6-fluoro-heptose-1β-S-ADP. […] NFkB gene activation was detected using the chromogenic substrate, para-nitrophenyl phosphate (pNPP) according to the manufacturer's protocols (pNPP Phosphatase Assay, Beyotime Biotechnology).

ALPK1, sequence (Q96QP1 whole entry): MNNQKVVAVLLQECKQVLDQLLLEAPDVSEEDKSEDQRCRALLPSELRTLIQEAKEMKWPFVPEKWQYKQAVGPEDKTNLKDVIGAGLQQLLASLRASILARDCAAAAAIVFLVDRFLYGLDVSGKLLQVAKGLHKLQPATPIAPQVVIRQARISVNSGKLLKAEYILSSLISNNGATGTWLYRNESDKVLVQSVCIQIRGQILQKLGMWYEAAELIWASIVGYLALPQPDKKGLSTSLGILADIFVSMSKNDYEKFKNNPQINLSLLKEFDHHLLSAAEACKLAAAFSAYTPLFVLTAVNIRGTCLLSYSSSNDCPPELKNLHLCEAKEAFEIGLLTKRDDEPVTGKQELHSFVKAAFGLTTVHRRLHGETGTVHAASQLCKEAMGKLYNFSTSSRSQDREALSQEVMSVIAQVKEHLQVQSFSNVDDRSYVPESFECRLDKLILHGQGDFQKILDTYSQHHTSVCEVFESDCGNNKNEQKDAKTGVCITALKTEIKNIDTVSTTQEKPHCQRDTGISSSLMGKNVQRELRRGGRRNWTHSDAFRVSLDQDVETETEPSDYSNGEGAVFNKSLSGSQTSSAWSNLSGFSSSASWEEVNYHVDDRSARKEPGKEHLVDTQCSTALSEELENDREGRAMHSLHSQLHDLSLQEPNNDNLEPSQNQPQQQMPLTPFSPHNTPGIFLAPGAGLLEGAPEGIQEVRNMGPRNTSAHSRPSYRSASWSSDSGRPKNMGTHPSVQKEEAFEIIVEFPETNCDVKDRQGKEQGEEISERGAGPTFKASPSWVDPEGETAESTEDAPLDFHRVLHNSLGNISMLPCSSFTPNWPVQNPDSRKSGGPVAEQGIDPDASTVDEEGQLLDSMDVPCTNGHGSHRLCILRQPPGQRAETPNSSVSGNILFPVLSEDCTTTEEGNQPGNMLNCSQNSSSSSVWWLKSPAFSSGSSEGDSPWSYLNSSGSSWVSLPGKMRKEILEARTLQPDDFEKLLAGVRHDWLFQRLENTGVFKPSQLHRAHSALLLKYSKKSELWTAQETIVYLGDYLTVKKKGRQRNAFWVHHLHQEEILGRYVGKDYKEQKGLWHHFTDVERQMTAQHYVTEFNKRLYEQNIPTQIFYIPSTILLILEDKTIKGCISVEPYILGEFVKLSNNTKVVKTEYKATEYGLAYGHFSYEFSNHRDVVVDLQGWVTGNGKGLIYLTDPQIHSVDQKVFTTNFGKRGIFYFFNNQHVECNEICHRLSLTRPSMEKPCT

Question: For `COc1cccc2ccc(NC(=O)c3c(F)cc(N4CCNCC4)cc3F)nc12` [Compound Q001, 2,6-difluoro-N-(8-methoxyquinolin-2-yl)-4-(piperazin-1-yl)benzamide], which IC50 (ALPK1) is on record?
Answer: 45 nM

Question: And the IC50 [1]?
Answer: 1240 nM

Question: With `COc1cccc2ccc(NC(=O)c3c(F)cc(N4CCN(C)CC4)cc3F)nc12` [Compound Q002, 2,6-difluoro-N-(8-methoxyquinolin-2-yl)-4-(4-methylpiperazin-1-yl)benzamide] as the compound, how does the IC50 (ALPK1) read?
Answer: 157 nM

Question: What about the IC50 [1] of the same compound?
Answer: 2300 nM

Question: `COc1cccc2ccc(NC(=O)c3c(F)cc(N4CCC(O)CC4)cc3F)nc12` [Compound Q003, 2,6-difluoro-4-(4-hydroxypiperidin-1-yl)-N-(8-methoxyquinolin-2-yl)benzamide] was tested. Which IC50 (ALPK1) did it give?
Answer: 369 nM

Question: What about the IC50 [1] of the same compound?
Answer: 2970 nM

Question: Which results are given for `COc1cccc2ccc(NC(=O)c3c(F)ccc(CN4CCNCC4)c3F)nc12` [Compound Q004, 2,6-difluoro-N-(8-methoxyquinolin-2-yl)-3-(piperazin-1-ylmethyl)benzamide]?
Answer: IC50 (ALPK1): 33 nM; IC50 [1]: 4300 nM

Question: Which results are given for `COc1cccc2ccc(NC(=O)c3c(F)ccc(N4CCNCC4)c3F)nc12` [Compound Q005, 2,6-difluoro-N-(8-methoxyquinolin-2-yl)-3-(piperazin-1-yl)benzamide]?
Answer: IC50 (ALPK1): 258 nM; IC50 [1]: 1370 nM

Question: For `COc1cc(OC)c2nc(NC(=O)c3c(F)cc(N4CCNCC4)cc3F)ccc2c1` [Compound Q006, N-(6,8-dimethoxyquinolin-2-yl)-2,6-difluoro-4-(piperazin-1-yl)benzamide], which IC50 [1] is on record?
Answer: 11100 nM

Question: For `COc1cc(F)cc2ccc(NC(=O)c3c(F)cc(N4CCNCC4)cc3F)nc12` [Compound Q007, 2,6-difluoro-N-(6-fluoro-8-methoxyquinolin-2-yl)-4-(piperazin-1-yl)benzamide], which IC50 (ALPK1) is on record?
Answer: 176 nM

Question: What about the IC50 [1] of the same compound?
Answer: 6780 nM

Question: With `COc1cccc2c(C)cc(NC(=O)c3c(F)cc(N4CCNCC4)cc3F)nc12` [Compound Q008, 2,6-difluoro-N-(8-methoxy-4-methylquinolin-2-yl)-4-(piperazin-1-yl)benzamide] as the compound, how does the IC50 (ALPK1) read?
Answer: 149 nM

Question: What about the IC50 [1] of the same compound?
Answer: 2920 nM

Question: `COc1cccc2ncc(NC(=O)c3c(F)cc(N4CCNCC4)cc3F)nc12` [Compound Q009, 2,6-difluoro-N-(8-methoxyquinoxalin-2-yl)-4-(piperazin-1-yl)benzamide] was tested. Which IC50 (ALPK1) did it give?
Answer: 178 nM

Question: And the IC50 [1]?
Answer: 3720 nM

Question: Which IC50 (ALPK1) does the source give for `COc1cccc2sc(NC(=O)c3c(F)cc(N4CC5CC(C4)N5)cc3F)nc12` [Compound T001, 4-(3,6-diazabicyclo[3.1.1]heptan-3-yl)-2,6-difluoro-N-(4-methoxybenzo[d]thiazol-2-yl)benzamide] here?
Answer: 95 nM

Question: What about the IC50 [1] of the same compound?
Answer: 1310 nM

Question: Which results are given for `COc1cccc2sc(NC(=O)c3c(C)cc(N4CCNCC4)cc3F)nc12` [Compound T002, 2-fluoro-N-(4-methoxybenzo[d]thiazol-2-yl)-6-methyl-4-(piperazin-1-yl)benzamide]?
Answer: IC50 (ALPK1): 176 nM; IC50 [1]: 2460 nM

Question: Which results are given for `COc1cccc2sc(NC(=O)c3c(F)cc(-c4cccc(C(=O)O)c4)cc3F)nc12` [Compound T003, 3′,5′-difluoro-4′-((4-methoxybenzo[d]thiazol-2-yl)carbamoyl)-[1,1′-biphenyl]-3-carboxylic acid]?
Answer: IC50 (ALPK1): 159 nM; IC50 [1]: 1490 nM

Question: Which results are given for `CCN1CCN(c2cc(F)c(C(=O)Nc3nc4c(OC)cccc4s3)c(F)c2)CC1` [Compound T004, 4-(4-ethylpiperazin-1-yl)-2,6-difluoro-N-(4-methoxybenzo[d]thiazol-2-yl)benzamide]?
Answer: IC50 (ALPK1): 131 nM; IC50 [1]: 1980 nM

Question: With `CCCN1CCN(c2cc(F)c(C(=O)Nc3nc4c(OC)cccc4s3)c(F)c2)CC1` [Compound T005, 2,6-difluoro-N-(4-methoxybenzo[d]thiazol-2-yl)-4-(4-propylpiperazin-1-yl)benzamide] as the compound, how does the IC50 (ALPK1) read?
Answer: 81 nM

Question: And the IC50 [1]?
Answer: 2420 nM

Question: `COc1cccc2sc(NC(=O)c3c(Cl)cc(N4CCNCC4)cc3Cl)nc12` [Compound T008, 2,6-dichloro-N-(4-methoxybenzo[d]thiazol-2-yl)-4-(piperazin-1-yl)benzamide] was tested. Which IC50 (ALPK1) did it give?
Answer: 57 nM

Question: What about the IC50 [1] of the same compound?
Answer: 1950 nM

Question: How did the IC50 (ALPK1) turn out when `O=C(Nc1nc2c(Br)cccc2s1)c1c(F)cccc1F` [Compound T009, N-(4-bromobenzo[d]thiazol-2-yl)-2,6-difluorobenzamide] was run?
Answer: 415 nM

Question: What about the IC50 [1] of the same compound?
Answer: 5860 nM

Question: Which IC50 (ALPK1) does the source give for `COc1cccc2sc(NC(=O)c3c(F)cc(N4CCNCC4)cc3Cl)nc12` [Compound T010, 2-chloro-6-fluoro-N-(4-methoxybenzo[d]thiazol-2-yl)-4-(piperazin-1-yl)benzamide] here?
Answer: 49 nM

Question: What about the IC50 [1] of the same compound?
Answer: 1640 nM

Question: `COC(=O)C1CCN(c2cc(F)c(C(=O)Nc3nc4c(OC)cccc4s3)c(F)c2)CC1` [Compound T011, methyl 1-(3,5-difluoro-4-((4-methoxybenzo[d]thiazol-2-yl)carbamoyl)phenyl)piperidine-4-carboxylate] was tested. Which IC50 (ALPK1) did it give?
Answer: 420 nM

Question: And the IC50 [1]?
Answer: 6650 nM

Question: How did the IC50 (ALPK1) turn out when `O=C(Nc1nc2c(C3CC3)cccc2s1)c1c(F)cccc1F` [Compound T012, N-(4-cyclopropylbenzo[d]thiazol-2-yl)-2,6-difluorobenzamide] was run?
Answer: 970 nM

Question: And the IC50 [1]?
Answer: 5950 nM

Question: Which IC50 (ALPK1) does the source give for `COc1cccc2sc(NC(=O)c3c(F)cc(NCCN(C)C)cc3F)nc12` [Compound T013, 4-((2-(dimethylamino)ethyl)amino)-2,6-difluoro-N-(4-methoxybenzo[d]thiazol-2-yl)benzamide] here?
Answer: 507 nM

Question: And the IC50 [1]?
Answer: 5220 nM

Question: For `COc1cccc2sc(NC(=O)c3c(F)cc(N4CCNCC4C)cc3F)nc12` (centres unmarked) [Compound T014, 2,6-difluoro-N-(4-methoxybenzo[d]thiazol-2-yl)-4-(2-methylpiperazin-1-yl)benzamide], which IC50 [1] is on record?
Answer: 1310 nM

Question: `COc1cccc2sc(NC(=O)c3c(F)cc(N4CCNC(C)C4)cc3F)nc12` (centres unmarked) [Compound T015, 2,6-difluoro-N-(4-methoxybenzo[d]thiazol-2-yl)-4-(3-methylpiperazin-1-yl)benzamide] was tested. Which IC50 (ALPK1) did it give?
Answer: 349 nM

Question: What about the IC50 [1] of the same compound?
Answer: 4470 nM

Question: What does the source list for `O=C(Nc1nc2c(Br)cccc2s1)c1c(F)ccc(N2CCNCC2)c1F` [Compound T016, N-(4-bromobenzo[d]thiazol-2-yl)-2,6-difluoro-3-(piperazin-1-yl)benzamide]?
Answer: IC50 (ALPK1): 47 nM; IC50 [1]: 2220 nM

Question: `COc1cccc2sc(NC(=O)c3c(F)cc(CN4CCNCC4)cc3F)nc12` [Compound T018, 2,6-difluoro-N-(4-methoxybenzo[d]thiazol-2-yl)-4-(piperazin-1-ylmethyl)benzamide] was tested. Which IC50 [1] did it give?
Answer: 2460 nM

Question: What does the source list for `O=C(Nc1nc2c(Br)cccc2s1)c1c(F)cc(CN2CCNCC2)cc1F` [Compound T020, N-(4-bromobenzo[d]thiazol-2-yl)-2,6-difluoro-4-(piperazin-1-ylmethyl)benzamide]?
Answer: IC50 (ALPK1): 100 nM; IC50 [1]: 1570 nM

Question: Which IC50 (ALPK1) does the source give for `O=C(Nc1nc2c(Br)cccc2s1)c1c(F)cc(CCN2CCNCC2)cc1F` [Compound T021, N-(4-bromobenzo[d]thiazol-2-yl)-2,6-difluoro-4-(2-(piperazin-1-yl)ethyl)benzamide] here?
Answer: 148 nM

Question: And the IC50 [1]?
Answer: 1200 nM

Question: What does the source list for `COc1cccc2sc(NC(=O)c3c(F)cc(N4CCOCC4)cc3F)nc12` [Compound T022, 2,6-difluoro-N-(4-methoxybenzo[d]thiazol-2-yl)-4-morpholinobenzamide]?
Answer: IC50 (ALPK1): 295 nM; IC50 [1]: 2010 nM

Question: Which results are given for `COc1cccc2sc(NC(=O)c3c(F)cc(NCCO)cc3F)nc12` [Compound T023, 2,6-difluoro-4-((2-hydroxyethyl)amino)-N-(4-methoxybenzo[d]thiazol-2-yl)benzamide]?
Answer: IC50 (ALPK1): 289 nM; IC50 [1]: 4300 nM

Question: `COc1cccc2sc(NC(=O)c3c(F)cc(N4CCN(Cc5ccccc5)C(=O)C4)cc3F)nc12` [Compound T024, 4-(4-benzyl-3-oxopiperazin-1-yl)-2,6-difluoro-N-(4-methoxybenzo[d]thiazol-2-yl)benzamide] was tested. Which IC50 (ALPK1) did it give?
Answer: 321 nM

Question: And the IC50 [1]?
Answer: 1150 nM

Question: How did the IC50 [1] turn out when `O=C(Nc1nc2c(F)cc(F)cc2s1)c1c(F)cc(N2CCNCC2)cc1F` [Compound T035] was run?
Answer: 5020 nM

Question: Which IC50 [1] does the source give for `O=C(Nc1nc2ccccc2s1)c1c(F)cc(N2CCNCC2)cc1F` [Compound T041, N-(benzo[d]thiazol-2-yl)-2,6-difluoro-4-(piperazin-1-yl)benzamide] here?
Answer: 3960 nM

Question: With `CC(C)Oc1cccc2sc(NC(=O)c3c(F)cc(N4CCNCC4)cc3F)nc12` [Compound T056, 2,6-difluoro-N-(4-isopropoxybenzo[d]thiazol-2-yl)-4-(piperazin-1-yl)benzamide] as the compound, how does the IC50 [1] read?
Answer: 7400 nM

Question: For `CCOc1cccc2sc(NC(=O)c3c(F)cc(N4CCNCC4)cc3F)nc12` [Compound T057, N-(4-ethoxybenzo[d]thiazol-2-yl)-2,6-difluoro-4-(piperazin-1-yl)benzamide], which IC50 [1] is on record?
Answer: 8700 nM
